According to US9511055B2, “Angiotensin in treating brain conditions” (TARIX PHARMACEUTICALS LTD., priority 2012, dated 2016):

Columns and labels:
Format in all cases: in vivo
[1] = test system: MCAO rat model of ischemic stroke; test: Modified Neurological Rating Scale (mNRS) evaluation after tMCAO; conditions: Example 1, continuous s.c. Alzet pump
Protocol: (§1) For the purposes of this example, Transient middle cerebral artery occlusion (tMCAO) procedure Day is defined as “Day 1” in this study. On the day of surgery anesthesia were induced with 4% isoflurane in a mixture of 70% N2O and 30% O2 and maintained with 1.5-2% isoflurane.
The tMCAO procedures were performed according to the method described R. Schmid-Elsaesser et al. Briefly, the right CCA (Common Carotid Artery) was exposed through a midline neck incision and carefully dissected free from surrounding nerves and fascia—from its bifurcation to the base of the skull. The occipital artery branches of the ECA (External Carotid Artery) were then isolated, and these branches were dissected and coagulated. The ECA was dissected further distally and coagulated along with the terminal lingual and maxillary artery branches, which was then divided. The ICA (Internal Carotid Artery) was isolated and carefully separated from the adjacent vagus nerve, and the pterygopalatine artery was ligated close to its origin with a 5-0 nylon suture (SMI, Belgium). Next, a 4-0 silk suture was tied loosely around the mobilized ECA stump, and a 4 cm length of 4-0 monofilament nylon suture (the tip of the suture was blunted by using a flame, and the suture was coated with polylysine, prior to insertion) was inserted through the proximal ECA into the ICA and thence into the circle of Willis, effectively occluding the MCA. The surgical wound was closed and the animals were returned to their cages to recover from anesthesia. One hour and a half after occlusion rats were re-anesthetized, the monofilament was withdrawn to allow reperfusion, the surgical wound was closed and rats were returned to their cages. […]
The Modified Neurological Rating Scale (mNRS) was administered by an individual who was unaware of the drug/dose given (blind test). […] Four groups were analyzed in this test, a control group (receiving only PBS for 49 days), a group receiving 50 μg/kg PanCyte for 49 days, a group receiving 500 μg/kg PanCyte for 49 days, and a group receiving 50 μg/kg PanCyte for 14 days. […]

[2] = test system: MCAO rat model of ischemic stroke; test: Body swing test after tMCAO; conditions: for body swing test performance vs control: continuous s.c. Alzet pump; for body swing test performance vs vehicle control: Example 2, 28 days
Protocol: as §1
(§2) The tMCAO procedures were performed according to the method described R. Schmid-Elsaesser et al. Briefly, the right CCA (Common Carotid Artery) was exposed through a midline neck incision and carefully dissected free from surrounding nerves and fascia—from its bifurcation to the base of the skull. The occipital artery branches of the ECA (External Carotid Artery) were then isolated, and these branches were dissected and coagulated. The ECA was dissected further distally and coagulated along with the terminal lingual and maxillary artery branches, which was then divided. The ICA (Internal Carotid Artery) was isolated and carefully separated from the adjacent vagus nerve, and the pterygopalatine artery was ligated close to its origin with a 5-0 nylon suture (SMI, Belgium). Next, a 4-0 silk suture was tied loosely around the mobilized ECA stump, and a 4 cm length of 4-0 monofilament nylon suture (the tip of the suture was blunted by using a flame, and the suture was coated with polylysine, prior to insertion) was inserted through the proximal ECA into the ICA and thence into the circle of Willis, effectively occluding the MCA. The surgical wound was closed and the animals were returned to their cages to recover from anesthesia. One hour and a half after occlusion rats were re-anesthetized, the monofilament was withdrawn to allow reperfusion, the surgical wound was closed and rats were returned to their cages.
(§3) Animals were subjected to a modified Modified Neurological Rating Scale (mNRS) at 24 hours post reperfusion. Only animals with an overall score of ≧10 are included in this study. Animals were allocated into the test groups, according to the mNRS results on day 2, in order to have similar distribution of rats performance between groups. Started on day 2, 24 hours post-surgery, each animal is implanted subcutaneously with osmotic Alzet pump and is treated by continuous PanCyte administration (2.5 mg/ml or 25 mg/ml in PBS; SEQ ID NO:22).
The rat was held approximately one inch from the base of its tail. It was then elevated to an inch above a surface of a table. The rat was held in the vertical axis, defined as no more than 10° to either the left or the right side. A swing was recorded whenever the rat moved its head out of the vertical axis to either side. Before attempting another swing, the rat had to return to the vertical position for the next swing to be counted. Twenty (20) total swings were counted. A normal rat typically has an equal number of swings to either side. Following focal ischemia, rats tend to swing to the contralateral side (left side in this example). Body swing scores are expressed as a percentage of rightward over total swings. […] Four groups were analyzed in this test, a control group (receiving only PBS for 49 days), a group receiving 50 μg/kg PanCyte for 49 days, a group receiving 500 μg/kg PanCyte for 49 days, and a group receiving 50 μg/kg PanCyte for 14 days.
Animals were subjected to a modified Modified Neurological Rating Scale (mNRS) at 24 hours post reperfusion. Only animals with an overall score of ≧10 were included in this study. Animals were allocated into the test groups, according to the mNRS results on day 2, in order to have similar distribution of rats performance between groups. Starting on day 2, 24 hours post-surgery, animals in groups 4, 5 and 7 were implanted subcutaneously with an osmotic Alzet pump and treated with either 500 μg/kg TXA127 (SEQ ID NO:1), 500 μg/kg PanCyte (SEQ ID NO:22), or 50 μg/kg Linear PanCyte (SEQ ID NO:6). Animals in groups 2, 3 and 6 received 500 μg/kg or 1,000 μg/kg TXA127 or 500 μg/kg PanCyte, administered subcutaneously via daily injection. […]

[3] = test system: MCAO rat model of ischemic stroke; test: Forelimb placement test after tMCAO; conditions: Example 1, continuous s.c. Alzet pump
Protocol: as §1, §2, §3
The limb placing tests were divided into both forelimb and hindlimb tests. For the forelimb-placing test, the examiner held the rat close to a tabletop and scored the rat's ability to place the forelimb on the tabletop in response to whisker, visual, tactile, or proprioceptive stimulation. Similarly, for the hindlimb placing test, the examiner assessed the rat's ability to place the hindlimb on the tabletop in response to tactile and proprioceptive stimulation. […]

CCC(C)C1NC(=O)C(NC(=O)C(NC(=O)C(CCCNC(=N)N)NC(=O)C(N)CC(=O)O)C(C)C)CSCC(C(=O)O)NC(=O)C(Cc2c[nH]cn2)NC1=O (stereo not drawn) [PanCyte, Asp^1-Arg^2-Val^3-Ser^4-Ile^5-His^6-Cys^7 (SEQ ID NO: 22)]
mNRS performance vs control ([1]; 50 μg/kg for 49 days, days 8 and 15): statistically improved performance on days 8 and 15
mNRS performance vs control ([1]; 500 μg/kg for 49 days, day 22): statistically improved performance on day 22
mNRS performance vs control ([1]; each PanCyte group (50 μg/kg 49 days, 500 μg/kg 49 days, 50 μg/kg 14 days), day 29 and 36): improved performance on the test by day 29
body swing test performance vs control ([2]; Example 1, 50 μg/kg for 14 days, from day 29): showed statistical significance beginning on day 29
body swing test scores vs control ([2]; Example 1, all treatment groups, from day 8): trend toward improved scores beginning on day 8
body swing test performance vs control ([2]; Example 1, each PanCyte group (50 μg/kg 49 days, 500 μg/kg 49 days, 50 μg/kg 14 days), day 36): improved performance on the test by day 36
body swing test performance vs vehicle control ([2]; 500 μg/kg daily s.c. injection, Day 28): significant improvement in performance by Day 28
body swing test performance vs vehicle control ([2]; PanCyte Alzet group, 500 μg/kg s.c. Alzet pump, Day 21): showed improvement by Day 21
body swing test performance vs vehicle control ([2]; PanCyte Alzet group, 500 μg/kg s.c. Alzet pump, Day 28): significant improvement in performance by Day 28
forelimb placing test performance vs control ([3]; 50 μg/kg for 14 days, from day 15): performed significantly better than control animals beginning on day 15
forelimb placing test performance vs control ([3]; each PanCyte group (50 μg/kg 49 days, 500 μg/kg 49 days, 50 μg/kg 14 days), day 29, continued to day 36): increased performance on this test by day 29
forelimb placing test performance vs control ([3]; other treatment groups (50 μg/kg 49 days, 500 μg/kg 49 days), trending before day 29): did not reach statistical significance until day 29
